Each substance was assayed on CD8+ T cells (assay: Meta-analysis of published SARS-CoV-2 CD8 T cell epitope data curated in the IEDB (25 studies)). Details: CD8-restricted SARS-CoV-2 epitopes; Yes = recognized by 3 or more donors/different studies.
Format: cell-based, human
For 1132 (YLYALVYFL) [compound 1132], the Dominant was “Yes (more dominant epitopes are defined by being recognized by 3 or more donors/different studies)”.
With 1192 (LEYHDVRVVL) [compound 1192] the Dominant was “Yes (more dominant epitopes are defined by being recognized by 3 or more donors/different studies)”.
1263 (YYVGYLQPRTF) [compound 1263] was tested, and the Dominant was “Yes (more dominant epitopes are defined by being recognized by 3 or more donors/different studies)”.
With 1286 (RISNCVADY) [compound 1286] the Dominant was “Yes (more dominant epitopes are defined by being recognized by 3 or more donors/different studies)”.
With 1104 (MDLFMRIFTI) [compound 1104] the Dominant was “Yes (more dominant epitopes are defined by being recognized by 3 or more donors/different studies)”.
1178 (VQELYSPIFLIV) [compound 1178] was tested, and the Dominant was “Yes (more dominant epitopes are defined by being recognized by 3 or more donors/different studies)”.
For 1248 (IYSKHTPINL) [compound 1248], the Dominant was “Yes (more dominant epitopes are defined by being recognized by 3 or more donors/different studies)”.
With 1111 (IVGVALLAVF) [compound 1111] the Dominant was “Yes (more dominant epitopes are defined by being recognized by 3 or more donors/different studies)”.
For 1187 (IQYIDIGNY) [compound 1187], the Dominant was “Yes (more dominant epitopes are defined by being recognized by 3 or more donors/different studies)”.
1226 (TEKSNIIRGW) [compound 1226] was tested, and the Dominant was “Yes (more dominant epitopes are defined by being recognized by 3 or more donors/different studies)”.
With 1225 (GVYFASTEK) [compound 1225] the Dominant was “Yes (more dominant epitopes are defined by being recognized by 3 or more donors/different studies)”.
1229 (FCNDPFLGVYY) [compound 1229] was tested, and the Dominant was “Yes (more dominant epitopes are defined by being recognized by 3 or more donors/different studies)”.
In the case of 1258 (LLALHRSYL) [compound 1258], the Dominant is reported as “Yes (more dominant epitopes are defined by being recognized by 3 or more donors/different studies)”.
With 1157 (HLVDFQVTI) [compound 1157] the Dominant was “Yes (more dominant epitopes are defined by being recognized by 3 or more donors/different studies)”.
1249 (TPINLVRDL) [compound 1249] was tested, and the Dominant was “Yes (more dominant epitopes are defined by being recognized by 3 or more donors/different studies)”.
With 1228 (TLDSKTQSL) [compound 1228] the Dominant was “Yes (more dominant epitopes are defined by being recognized by 3 or more donors/different studies)”.
1190 (KLGSLVVRC) [compound 1190] was tested, and the Dominant was “Yes (more dominant epitopes are defined by being recognized by 3 or more donors/different studies)”.
1298 (NLDSKVGGNY) [compound 1298] was tested, and the Dominant was “Yes (more dominant epitopes are defined by being recognized by 3 or more donors/different studies)”.
For 1297 (KLPDDFTGCV) [compound 1297], the Dominant was “Yes (more dominant epitopes are defined by being recognized by 3 or more donors/different studies)”.
With 1260 (WTAGAAAYYVGY) [compound 1260] the Dominant was “Yes (more dominant epitopes are defined by being recognized by 3 or more donors/different studies)”.
For 1212 (STQDLFLPFF) [compound 1212], the Dominant was “Yes (more dominant epitopes are defined by being recognized by 3 or more donors/different studies)”.
With 1245 (FVFKNIDGY) [compound 1245] the Dominant was “Yes (more dominant epitopes are defined by being recognized by 3 or more donors/different studies)”.
In the case of 1180 (VFITLCFTLK) [compound 1180], the Dominant is reported as “Yes (more dominant epitopes are defined by being recognized by 3 or more donors/different studies)”.
For 1233 (KSWMESEFRVY) [compound 1233], the Dominant was “Yes (more dominant epitopes are defined by being recognized by 3 or more donors/different studies)”.

Same assay, conditions: CD8S (D) Megapool, antigen S; dominant = recognized in 3 or more donors/studies
In the case of 1473 (TEKSNIIRGW) [compound 1473], the Dominant is reported as “Yes (more dominant epitopes are defined by being recognized by 3 or more donors/different studies)”.
1469 (YTNSFTRGVY) [compound 1469] was tested, and the Dominant was “Yes (more dominant epitopes are defined by being recognized by 3 or more donors/different studies)”.
1484 (KCYGVSPTK) [compound 1484] was tested, and the Dominant was “Yes (more dominant epitopes are defined by being recognized by 3 or more donors/different studies)”.
In the case of 1508 (VLNDILSRL) [compound 1508], the Dominant is reported as “Yes (more dominant epitopes are defined by being recognized by 3 or more donors/different studies)”.
For 1491 (GPKKSTNLV) [compound 1491], the Dominant was “Yes (more dominant epitopes are defined by being recognized by 3 or more donors/different studies)”.
1519 (KWPWYIWLGF) [compound 1519] was tested, and the Dominant was “Yes (more dominant epitopes are defined by being recognized by 3 or more donors/different studies)”.
For 1511 (YHLMSFPQSA) [compound 1511], the Dominant was “Yes (more dominant epitopes are defined by being recognized by 3 or more donors/different studies)”.
For 1506 (TQNVLYENQK) [compound 1506], the Dominant was “Yes (more dominant epitopes are defined by being recognized by 3 or more donors/different studies)”.
With 1517 (NLNESLIDL) [compound 1517] the Dominant was “Yes (more dominant epitopes are defined by being recognized by 3 or more donors/different studies)”.
In the case of 1477 (IYSKHTPINL) [compound 1477], the Dominant is reported as “Yes (more dominant epitopes are defined by being recognized by 3 or more donors/different studies)”.
With 1485 (KIADYNYKL) [compound 1485] the Dominant was “Yes (more dominant epitopes are defined by being recognized by 3 or more donors/different studies)”.
With 1521 (SEPVLKGVKL) [compound 1521] the Dominant was “Yes (more dominant epitopes are defined by being recognized by 3 or more donors/different studies)”.
In the case of 1516 (RLNEVAKNL) [compound 1516], the Dominant is reported as “Yes (more dominant epitopes are defined by being recognized by 3 or more donors/different studies)”.
With 1481 (YLQPRTFLL) [compound 1481] the Dominant was “Yes (more dominant epitopes are defined by being recognized by 3 or more donors/different studies)”.
For 1513 (APHGVVFLHV) [compound 1513], the Dominant was “Yes (more dominant epitopes are defined by being recognized by 3 or more donors/different studies)”.
In the case of 1480 (WTAGAAAYY) [compound 1480], the Dominant is reported as “Yes (more dominant epitopes are defined by being recognized by 3 or more donors/different studies)”.
1515 (GTHWFVTQR) [compound 1515] was tested, and the Dominant was “Yes (more dominant epitopes are defined by being recognized by 3 or more donors/different studies)”.
In the case of 1504 (MIAQYTSAL) [compound 1504], the Dominant is reported as “Yes (more dominant epitopes are defined by being recognized by 3 or more donors/different studies)”.
With 1489 (YFPLQSYGF) [compound 1489] the Dominant was “Yes (more dominant epitopes are defined by being recognized by 3 or more donors/different studies)”.
1514 (VVFLHVTYV) [compound 1514] was tested, and the Dominant was “Yes (more dominant epitopes are defined by being recognized by 3 or more donors/different studies)”.
With 1499 (TEILPVSMTK) [compound 1499] the Dominant was “Yes (more dominant epitopes are defined by being recognized by 3 or more donors/different studies)”.
In the case of 1500 (TECSNLLLQY) [compound 1500], the Dominant is reported as “Yes (more dominant epitopes are defined by being recognized by 3 or more donors/different studies)”.

Same assay, conditions: CD8 epitopes; Yes = recognized by 3 or more donors/different studies
455 (RLFARTRSMW) [compound 455] was tested, and the Dominant was “Yes (more dominant epitopes are defined by being recognized by 3 or more donors/different studies)”.
423 (YVYSRVKNL) [compound 423] was tested, and the Dominant was “Yes (more dominant epitopes are defined by being recognized by 3 or more donors/different studies)”.
In the case of 494 (NTNSSPDDQIGYY) [compound 494], the Dominant is reported as “Yes (more dominant epitopes are defined by being recognized by 3 or more donors/different studies)”.
In the case of 484 (RYRIGNYKL) [compound 484], the Dominant is reported as “Yes (more dominant epitopes are defined by being recognized by 3 or more donors/different studies)”.
In the case of 427 (FLFLTWICL) [compound 427], the Dominant is reported as “Yes (more dominant epitopes are defined by being recognized by 3 or more donors/different studies)”.
With 493 (FPRGQGVPI) [compound 493] the Dominant was “Yes (more dominant epitopes are defined by being recognized by 3 or more donors/different studies)”.
For 498 (RIRGGDGKMK) [compound 498], the Dominant was “Yes (more dominant epitopes are defined by being recognized by 3 or more donors/different studies)”.

Same assay, conditions: SARS-CoV-2-derived CD8 epitopes; dominant = recognized by 3 or more donors/different studies
818 (RPDTRYVL) [compound 818] was tested, and the Dominant was “Yes (more dominant epitopes are defined by being recognized by 3 or more donors/different studies)”.
In the case of 781 (STFNVPMEK) [compound 781], the Dominant is reported as “Yes (more dominant epitopes are defined by being recognized by 3 or more donors/different studies)”.
For 808 (FLPRVFSAV) [compound 808], the Dominant was “Yes (more dominant epitopes are defined by being recognized by 3 or more donors/different studies)”.
With 723 (ASMPTTIAK) [compound 723] the Dominant was “Yes (more dominant epitopes are defined by being recognized by 3 or more donors/different studies)”.
For 754 (YIFFASFYY) [compound 754], the Dominant was “Yes (more dominant epitopes are defined by being recognized by 3 or more donors/different studies)”.
For 860 (VLAWLYAAV) [compound 860], the Dominant was “Yes (more dominant epitopes are defined by being recognized by 3 or more donors/different studies)”.
For 861 (FLNRFTTTL) [compound 861], the Dominant was “Yes (more dominant epitopes are defined by being recognized by 3 or more donors/different studies)”.
816 (SLRPDTRYVL) [compound 816] was tested, and the Dominant was “Yes (more dominant epitopes are defined by being recognized by 3 or more donors/different studies)”.
With 896 (SEFSSLPSY) [compound 896] the Dominant was “Yes (more dominant epitopes are defined by being recognized by 3 or more donors/different studies)”.
In the case of 833 (TFYLTNDVSFL) [compound 833], the Dominant is reported as “Yes (more dominant epitopes are defined by being recognized by 3 or more donors/different studies)”.
For 866 (SAFAMMFVK) [compound 866], the Dominant was “Yes (more dominant epitopes are defined by being recognized by 3 or more donors/different studies)”.

Reference: patent US20250231185A1, “Coronavirus T Cell Epitopes, Megapools and Uses Thereof” (La Jolla Institute for Immunology, priority 2021, published 2025)
